Legend:
Test in all cases: Test C pre/postemergence
Format in all cases: in vivo
[1] = system: soybean (Glycine max); conditions: for Plant response rating (scale of 0 to 100), Soybean / Soybean plant response rating: Postemergence; for Soybean plant response rating: scale 0 to 100 (0 no effect, 100 complete control); for Plant response rating, Soybean: Preemergence
How it was run: (§1)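 We sprayed seeded pots preemergence and 2–18 cm seedlings postemergence with test chemicals in a non-phytotoxic solvent mixture including surfactant. Greenhouse plants were visually compared with untreated controls at 12 to 14 days and scored 0 (no effect) to 100 (complete control).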

[2] = system: giant foxtail (Setaria faberii); conditions: for Plant response rating (scale of 0 to 100), Foxtail, Giant / Foxtail, Giant plant response rating: Postemergence; for Foxtail, Giant plant response rating: scale 0 to 100 (0 no effect, 100 complete control); for Plant response rating, Foxtail, Giant: Preemergence
How it was run: as §1

[3] = system: johnsongrass (Sorghum halepense); conditions: for Plant response rating, Johnsongrass: Preemergence
How it was run: as §1

[4] = system: Surinam grass (Brachiaria decumbens); conditions: for Plant response rating, Surinam Grass: Preemergence
How it was run: as §1

[5] = system: eastern black nightshade (Solanum ptycanthum); conditions: Preemergence
How it was run: as §1

[6] = system: morningglory (Ipomoea coccinea); conditions: for Morningglory plant response rating: scale 0 to 100 (0 no effect, 100 complete control); for Plant response rating, Morningglory: Preemergence
How it was run: as §1

[7] = system: common (oilseed) sunflower (Helianthus annuus); conditions: Preemergence
How it was run: as §1

[8] = system: cocklebur (Xanthium strumarium); conditions: for Plant response rating (scale of 0 to 100), Cocklebur / Cocklebur plant response rating: Postemergence; for Cocklebur plant response rating: scale 0 to 100 (0 no effect, 100 complete control); for Plant response rating, Cocklebur: Preemergence
How it was run: as §1

[9] = system: kochia (Kochia scoparia); conditions: for Plant response rating (scale of 0 to 100), Kochia / Kochia plant response rating: Postemergence; for Kochia plant response rating: scale 0 to 100 (0 no effect, 100 complete control); for Plant response rating, Kochia: Preemergence
How it was run: as §1

[10] = system: corn (Zea mays); conditions: for Plant response rating (scale of 0 to 100), Corn / Corn plant response rating: Postemergence; for Corn plant response rating: scale 0 to 100 (0 no effect, 100 complete control); for Plant response rating, Corn: Preemergence
How it was run: as §1

[11] = system: lambsquarters (Chenopodium album); conditions: for Plant response rating (scale of 0 to 100), Lambsquarters / Lambsquarters plant response rating: Postemergence; for Lambsquarters plant response rating: scale 0 to 100 (0 no effect, 100 complete control); for Plant response rating, Lambsquarters: Preemergence
How it was run: as §1

[12] = system: crabgrass (Digitaria sanguinalis); conditions: for Plant response rating (scale of 0 to 100), Crabgrass / Crabgrass plant response rating: Postemergence; for Crabgrass plant response rating: scale 0 to 100 (0 no effect, 100 complete control); for Plant response rating, Crabgrass: Preemergence
How it was run: as §1

[13] = 16 g ai/ha, scale 0 to 100, 0 no effect, 100 complete control
[14] = 31 g ai/ha, scale 0 to 100, 0 no effect, 100 complete control
[15] = 62 g ai/ha, scale 0 to 100, 0 no effect, 100 complete control
[16] = Postemergence, 62 g ai/ha, scale 0 to 100 (0 no effect, 100 complete control)

Question: `COC(=O)c1nc(C2CC2)nc(N=CN(C)C)c1Br` [Compound 19] was tested. Which “Plant response rating (scale of 0 to 100), Soybean” value ([1]; 16 g ai/ha) did it give?
Answer: 45

Question: And the “Plant response rating (scale of 0 to 100), Soybean” value ([1]; 31 g ai/ha)?
Answer: 55

Question: What about the “Soybean plant response rating” value ([1]; 62 g ai/ha) of the same compound?
Answer: 75

Question: What about the “Soybean plant response rating” value ([1]; 125 g ai/ha) of the same compound?
Answer: 75

Question: What about the “Plant response rating, Soybean” value [1, 13] of the same compound?
Answer: 0

Question: And the “Plant response rating, Soybean” value [1, 14]?
Answer: 25

Question: And the “Plant response rating, Soybean” value [1, 15]?
Answer: 85

Question: What about the “Plant response rating, Soybean” value ([1]; 125 g ai/ha, scale 0 to 100) of the same compound?
Answer: 90

Question: What about the “Plant response rating (scale of 0 to 100), Foxtail, Giant” value ([2]; 16 g ai/ha) of the same compound?
Answer: 0

Question: What about the “Plant response rating (scale of 0 to 100), Foxtail, Giant” value ([2]; 31 g ai/ha) of the same compound?
Answer: 5

Question: And the “Foxtail, Giant plant response rating” value ([2]; 62 g ai/ha)?
Answer: 40

Question: And the “Foxtail, Giant plant response rating” value ([2]; 125 g ai/ha)?
Answer: 55

Question: What about the “Plant response rating, Foxtail, Giant” value [2, 13] of the same compound?
Answer: 0

Question: What about the “Plant response rating, Foxtail, Giant” value [2, 14] of the same compound?
Answer: 0

Question: And the “Plant response rating, Foxtail, Giant” value [2, 15]?
Answer: 0

Question: What about the “Plant response rating, Foxtail, Giant” value ([2]; 125 g ai/ha, scale 0 to 100) of the same compound?
Answer: 0

Question: And the “Plant response rating (scale of 0 to 100), Johnsongrass” value ([3]; Postemergence, 16 g ai/ha)?
Answer: 0

Question: And the “Plant response rating (scale of 0 to 100), Johnsongrass” value ([3]; Postemergence, 31 g ai/ha)?
Answer: 0

Question: What about the “Johnsongrass plant response rating” value [3, 16] of the same compound?
Answer: 0

Question: What about the “Plant response rating, Johnsongrass” value [3, 13] of the same compound?
Answer: 0

Question: What about the “Plant response rating, Johnsongrass” value [3, 14] of the same compound?
Answer: 0

Question: And the “Plant response rating, Johnsongrass” value [3, 15]?
Answer: 35

Question: And the “Plant response rating, Johnsongrass” value ([3]; 125 g ai/ha, scale 0 to 100)?
Answer: 55

Question: What about the “Plant response rating (scale of 0 to 100), Surinam Grass” value ([4]; Postemergence, 16 g ai/ha) of the same compound?
Answer: 0

Question: What about the “Plant response rating (scale of 0 to 100), Surinam Grass” value ([4]; Postemergence, 31 g ai/ha) of the same compound?
Answer: 25

Question: What about the “Surinam Grass plant response rating” value [4, 16] of the same compound?
Answer: 45

Question: What about the “Plant response rating, Surinam Grass” value [4, 13] of the same compound?
Answer: 0

Question: What about the “Plant response rating, Surinam Grass” value [4, 15] of the same compound?
Answer: 0

Question: What about the “Plant response rating, Surinam Grass” value ([4]; 125 g ai/ha, scale 0 to 100) of the same compound?
Answer: 10

Question: What about the “Plant response rating, Nightshade” value [5, 13] of the same compound?
Answer: 0

Question: What about the “Plant response rating, Nightshade” value [5, 14] of the same compound?
Answer: 40

Question: What about the “Plant response rating, Nightshade” value [5, 15] of the same compound?
Answer: 100

Question: What about the “Plant response rating, Nightshade” value ([5]; 125 g ai/ha, scale 0 to 100) of the same compound?
Answer: 100

Question: And the “Plant response rating (scale of 0 to 100), Morningglory” value ([6]; Postemergence, 31 g ai/ha)?
Answer: 55

Question: What about the “Morningglory plant response rating” value ([6]; Postemergence, 62 g ai/ha) of the same compound?
Answer: 80

Question: What about the “Morningglory plant response rating” value ([6]; Postemergence, 125 g ai/ha) of the same compound?
Answer: 85

Question: And the “Plant response rating, Morningglory” value [6, 13]?
Answer: 10

Question: What about the “Plant response rating, Morningglory” value [6, 14] of the same compound?
Answer: 10

Question: And the “Plant response rating, Morningglory” value [6, 15]?
Answer: 90

Question: What about the “Plant response rating, Morningglory” value ([6]; 125 g ai/ha, scale 0 to 100) of the same compound?
Answer: 90

Question: What about the “Plant response rating, Sunflower” value [7, 13] of the same compound?
Answer: 10

Question: And the “Plant response rating, Sunflower” value [7, 14]?
Answer: 25

Question: What about the “Plant response rating, Sunflower” value [7, 15] of the same compound?
Answer: 70

Question: What about the “Plant response rating, Sunflower” value ([7]; 125 g ai/ha, scale 0 to 100) of the same compound?
Answer: 90

Question: What about the “Plant response rating (scale of 0 to 100), Cocklebur” value ([8]; 16 g ai/ha) of the same compound?
Answer: 25

Question: What about the “Plant response rating (scale of 0 to 100), Cocklebur” value ([8]; 31 g ai/ha) of the same compound?
Answer: 25

Question: And the “Cocklebur plant response rating” value ([8]; 62 g ai/ha)?
Answer: 50

Question: What about the “Cocklebur plant response rating” value ([8]; 125 g ai/ha) of the same compound?
Answer: 90

Question: What about the “Plant response rating, Cocklebur” value [8, 13] of the same compound?
Answer: 15

Question: And the “Plant response rating, Cocklebur” value [8, 14]?
Answer: 30

Question: And the “Plant response rating, Cocklebur” value [8, 15]?
Answer: 65

Question: What about the “Plant response rating, Cocklebur” value ([8]; 125 g ai/ha, scale 0 to 100) of the same compound?
Answer: 80

Question: What about the “Plant response rating (scale of 0 to 100), Kochia” value ([9]; 16 g ai/ha) of the same compound?
Answer: 80

Question: What about the “Plant response rating (scale of 0 to 100), Kochia” value ([9]; 31 g ai/ha) of the same compound?
Answer: 90

Question: And the “Kochia plant response rating” value ([9]; 62 g ai/ha)?
Answer: 90

Question: And the “Kochia plant response rating” value ([9]; 125 g ai/ha)?
Answer: 90

Question: And the “Plant response rating, Kochia” value [9, 13]?
Answer: 35

Question: What about the “Plant response rating, Kochia” value [9, 15] of the same compound?
Answer: 85

Question: And the “Plant response rating, Kochia” value ([9]; 125 g ai/ha, scale 0 to 100)?
Answer: 90

Question: What about the “Plant response rating (scale of 0 to 100), Corn” value ([10]; 16 g ai/ha) of the same compound?
Answer: 0

Question: And the “Plant response rating (scale of 0 to 100), Corn” value ([10]; 31 g ai/ha)?
Answer: 0

Question: And the “Corn plant response rating” value ([10]; 62 g ai/ha)?
Answer: 0

Question: What about the “Corn plant response rating” value ([10]; 125 g ai/ha) of the same compound?
Answer: 35

Question: And the “Plant response rating, Corn” value [10, 13]?
Answer: 0

Question: And the “Plant response rating, Corn” value [10, 14]?
Answer: 0

Question: And the “Plant response rating, Corn” value [10, 15]?
Answer: 0

Question: And the “Plant response rating, Corn” value ([10]; 125 g ai/ha, scale 0 to 100)?
Answer: 0

Question: What about the “Plant response rating (scale of 0 to 100), Lambsquarters” value ([11]; 16 g ai/ha) of the same compound?
Answer: 70

Question: And the “Plant response rating (scale of 0 to 100), Lambsquarters” value ([11]; 31 g ai/ha)?
Answer: 90

Question: What about the “Lambsquarters plant response rating” value ([11]; 62 g ai/ha) of the same compound?
Answer: 90

Question: What about the “Lambsquarters plant response rating” value ([11]; 125 g ai/ha) of the same compound?
Answer: 95

Question: What about the “Plant response rating, Lambsquarters” value [11, 13] of the same compound?
Answer: 75

Question: What about the “Plant response rating, Lambsquarters” value [11, 14] of the same compound?
Answer: 100

Question: What about the “Plant response rating, Lambsquarters” value [11, 15] of the same compound?
Answer: 100

Question: And the “Plant response rating, Lambsquarters” value ([11]; 125 g ai/ha, scale 0 to 100)?
Answer: 100

Question: What about the “Plant response rating (scale of 0 to 100), Crabgrass” value ([12]; 16 g ai/ha) of the same compound?
Answer: 20

Question: And the “Plant response rating (scale of 0 to 100), Crabgrass” value ([12]; 31 g ai/ha)?
Answer: 40

Question: What about the “Crabgrass plant response rating” value ([12]; 62 g ai/ha) of the same compound?
Answer: 70

Question: What about the “Crabgrass plant response rating” value ([12]; 125 g ai/ha) of the same compound?
Answer: 70

Question: What about the “Plant response rating, Crabgrass” value [12, 13] of the same compound?
Answer: 0

Question: What about the “Plant response rating, Crabgrass” value [12, 14] of the same compound?
Answer: 0

Question: What about the “Plant response rating, Crabgrass” value [12, 15] of the same compound?
Answer: 0

Question: And the “Plant response rating, Crabgrass” value ([12]; 125 g ai/ha, scale 0 to 100)?
Answer: 0
